Assay results as given in ChEMBL document CHEMBL1143125, “DNA cleavage by novel copper (II) complex and the role of beta-cyclodextrin in promoting cleavage” (Bioorg Med Chem, 2008).

What was measured:
Escherichia coli = test: Induction of Escherichia coli pUC19 DNA cleavage assessed as non-cleaved DNA level at 0.714 mM after 12 hrs
DNA = test: Binding affinity to calf thymus DNA assessed by fluorescence quenching assay; type: nucleic-acid assay; conditions: Bos taurus

OC[C@H]1O[C@@H]2O[C@H]3[C@H](O)[C@@H](O)[C@@H](O[C@H]4[C@H](O)[C@@H](O)[C@@H](O[C@H]5[C@H](O)[C@@H](O)[C@@H](O[C@H]6[C@H](O)[C@@H](O)[C@@H](O[C@H]7[C@H](O)[C@@H](O)[C@@H](O[C@H]8[C@H](O)[C@@H](O)[C@@H](O[C@H]1[C@H](O)[C@H]2O)O[C@@H]8CO)O[C@@H]7CO)O[C@@H]6CO)O[C@@H]5CO)O[C@@H]4CO)O[C@@H]3CO
Activity (Escherichia coli): 6.3%

NC(CCC(=O)Nc1cccc2ccccc12)C(=O)N1CCNCCNCCNCC1 (stereo not drawn)
K (DNA): 30000 L/mol | Activity (Escherichia coli): 7.4%
